# Earlier results, collected in PMC9260974 (BMC Pharmacology & Toxicology, 2022).
# Conditions: in vivo, po; cited from earlier work
smiles,measurement,value
C[C@H](CS)C(=O)N1CCC[C@H]1C(=O)O [captopril],Reduction of bioavailability by food,35-50%
